Measurements as given in PMC9413514, “Accessing Lipophilicity and Biomimetic Chromatography Profile of Biologically Active Ingredients of Botanicals Used in the Treatment of Inflammatory Bowel Disease” (Pharmaceuticals, 2022).

What was measured:
[1] = C18-TLC assay (hydrophobicity); assay type: physicochemical; settings: for RM0 (TLC hydrophobicity index, intercept of linear equation): RP-18 TLC, PBS pH 7.4/methanol, extrapolated to zero organic modifier; for spot migration in C18-TLC: regardless the percentage of the organic modifier in the mobile phase
Excerpt: In TLC measurements RF value depends on the chemical structure of analyte and its interaction with stationary and mobile phase. […] As it was expected, with increase in the percentage of organic modifier in the mobile phase the increase in RF values can be seen with accompanied decrease in RM values expressed as RM = log(1/RF - 1). Measured RF values were in the range from 0.1 to 0.7 obtained in a wide range of mobile phase organic modifier concentrations. […] Increasing concentration of the organic modifier in the mobile phase caused a slower decrease in the RM values for less hydrophobic analytes than for more hydrophobic ones. […] Increase in the hydrophobicity within curcuminoids and andrographolides is related to increase in lipophilicity determined by shake-flask method (Table 3). Stock solutions of analytes and calibration standards were prepared by dissolving 10 mg of each solute in 10 mL of methanol and kept at 4 °C. Working solutions were freshly prepared at the beginning of each day by dilution of the stock solutions to 100 μg/mL with methanol for TLC measurements or mobile phase for HPLC measurements. Before use, the samples were sonicated (Elmasonic […]) for 10 min at 25 °C and all working solutions were filtered through 0.2 μm polyethersulfone filters (Obrnuta faza). To protect analytes from photodegradation, the amber glass HPLC vials were used. Analyses were carried out using a commercially available 10 cm x 20 cm RP-18 TLC plates with fluorescent indicator (Merck KGaA). 5 μL of each working solution ([…]) was applied to the plates as 5 mm bends, 10 mm from the lower edge and 15 mm from sides of plates. The mobile phases were prepared by mixing the respective amounts of PBS (20 mM, pH 7.4) and methanol from 50% to 80% of organic solvent in 5% increment. The vertical flat-bottom chamber ([…], Switzerland) with a stainless-steel lid was saturated with mobile phase for 30 min. The plates were developed to a distance of 9 cm at room temperature, dried in the open air for 5 min and visualized under λ = 254 nm UV light (UV Cabinet with Dual Wavelength UV lamp by Camag).

[2] = biological target: T1, human serum albumin (HSA) (Homo sapiens, UniProt P02768); assay: HSA-HPAC assay (plasma protein binding); assay type: in vitro ADME; settings: Chiralpak-HSA, pH 7.4, 25 °C; spread is RSD in %
T1 construct: purchased ChromTech (Cedex, France) Chiralpak-HSA
T1 sequence (P02768 25-609): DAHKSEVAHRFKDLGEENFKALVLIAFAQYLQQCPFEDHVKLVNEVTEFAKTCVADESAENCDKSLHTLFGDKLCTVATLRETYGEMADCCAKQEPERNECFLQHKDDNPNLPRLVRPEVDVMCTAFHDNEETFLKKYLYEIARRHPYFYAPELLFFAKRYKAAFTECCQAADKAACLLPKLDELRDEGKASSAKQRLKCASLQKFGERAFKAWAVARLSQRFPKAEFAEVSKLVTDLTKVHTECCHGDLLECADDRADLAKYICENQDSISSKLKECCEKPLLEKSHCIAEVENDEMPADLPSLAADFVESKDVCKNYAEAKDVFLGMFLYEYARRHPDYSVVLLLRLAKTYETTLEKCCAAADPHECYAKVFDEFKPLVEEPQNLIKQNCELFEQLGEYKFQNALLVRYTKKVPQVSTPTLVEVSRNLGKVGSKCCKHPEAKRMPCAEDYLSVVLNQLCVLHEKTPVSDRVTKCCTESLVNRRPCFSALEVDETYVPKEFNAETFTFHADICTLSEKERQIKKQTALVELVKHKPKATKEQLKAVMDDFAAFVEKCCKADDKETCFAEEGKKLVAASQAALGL
Excerpt: (§1) The gradient retention times obtained by HSA-HPAC and AGP-HPAC assays were standardized using a calibration set of compounds with known percentage of plasma protein binding data and procedure described in our previously published study. […] This verification assured that the protein affinity indices obtained by HPAC assays depict not only unspecific generally lipophilicity-driven interactions, but also highly specific recognition forces responsible of enantioselectivity.
(§2) Stock solutions of analytes and calibration standards were prepared by dissolving 10 mg of each solute in 10 mL of methanol and kept at 4 °C. Working solutions were freshly prepared at the beginning of each day by dilution of the stock solutions to 100 μg/mL with methanol for TLC measurements or mobile phase for HPLC measurements. Before use, the samples were sonicated (Elmasonic XtraTT, Elma Schmidbauer) for 10 min at 25 °C and all working solutions were filtered through 0.2 µm polyethersulfone filters (Obrnuta faza). To protect analytes from photodegradation, the amber glass HPLC vials were used.
(§3) The binding of biologically active compounds to the plasma proteins was investigated using affinity chromatographic columns by ChromTech (Cedex, France) containing immobilized human serum albumin (HSA) (Chiralpak-HSA, length 50 mm, i.d. 4.6 mm, particle size 5 µm) and α1-acid glycoprotein (AGP) (Chiralpak-AGP, length 50 mm, i.d. 4.6 mm, particle size 5 µm) and Agilent HPLC 1100 instrument. The 20 mM potassium phosphate buffer with the pH adjusted to 7.4 and iso-propanol were used as mobile phase components A and B. Retention data were collected at 25.0 ± 0.1 °C using gradient program as follows: 0 min/0% B, 6 min/30% B, 15 min/30% B and 20 min/0% B. Injection volume was set at 10 µL and the measurements were carried out at 25.0 ± 0.1 °C with flow rate of 1.5 mL/min. The absorbance of the analytes during a chromatographic run was collected in the spectral range 200–400 nm, and the detection wavelength for each analyte was the one providing the maximum peak height.

[3] = tested on: α1-acid glycoprotein (AGP); assay: AGP-HPAC assay (plasma protein binding); assay type: in vitro ADME; settings: Chiralpak-AGP, pH 7.4, 25 °C; spread is RSD in %
Excerpt: as §1, §2, §3

[4] = IAM-HPLC assay (lipophilicity, affinity to phospholipids); assay type: physicochemical
Method: IAM columns provide potential to simulate membrane permeability since the amphiphilic character of phospholipid functional groups plays an important role in IAM retention especially when charged molecules are analysed.
as §2
C18-HPLC assay was carried out at Agilent HPLC 1100 and Zorbax SB C18 chromatographic column (length 250 mm.6 mm, particle size 5 µm) by Agilent Technologies, while IAM-HPLC assay was conducted using IAM P.C.DD2 chromatographic column (length 50 mm, i.d. 3.0 mm, particle size […]) by Regis Technologies (Morton Grove, IL, USA). Retention data were collected at 25.0 ± 0.1 °C using isocratic method working with mobile phases, mixing the respective amounts of PBS (10 mM, pH 7.4) and methanol from 35% to 80% of organic solvent in 5% increment. Each mobile phase was shaken vigorously and filtrated through membrane filter, no. 66, diameter 47 mm, pore size 0.45 µm by Supelco and degassed by sonication 5 min before use. The injection volume was set at 10 µL, and the measurements were carried out at flow rate 1.0 mL/min. Natrium nitrate solution (0.1 mg/mL in mobile phase) was used as the marker of dead-time. The absorbance of the analytes during a chromatographic run was collected in the spectral range of 200–400 nm, and the detection wavelength for each analyte was the one providing the maximum peak height.

[5] = Miniaturized shake-flask method (n-octanol/PBS pH 7.4) with HPLC analysis; assay type: physicochemical; settings: n-octanol/PBS 20 mM pH 7.4, 25 °C; spread is RSD in %; read-out: log D7.4 ± RSD (%) (n = 3)
Method: Stock solution of biologically active ingredients of botanicals used in IBD treatment were prepared using dimethylsulfoxide in concentration of 2 mg/mL. Working solutions were prepared daily by dilution of the stock solutions with PBS (20 mM, pH 7.4) pre-saturated with n-octanol. Before the injection into the HPLC system all solutions were sonicated for 15 min at room temperature in Elmasonic XtraTT (Elma Schmidbauer, Singen, Germany) and filtered through 0.2 μm polyethersulfone filters (Obrnuta faza, Pazin, Croatia).
The pre-saturated solutions of n-octanol and PBS (20 mM, pH 7.4) were used for determination of logarithm of distribution coefficient (log D7.4). The n-octanol and aqueous phase (mixture 1:1, v/v) were mutually saturated for 24 h in an orbital shaker-incubator ES-20/60 (Biosan, Riga, Latvia) at 100 oscillations per min at 25.0 ± 0.1 °C. The prepared mixture was left resting for at least 12 h in the thermostat at 25.0 ± 0.1 °C to ensure complete separation of the two phases. Until analysis, separated saturated solutions were kept in refrigerator at 4 °C.
Shake-flask procedure was conducted in amber 2 mL HPLC vials. 300 μL of the working solution was added to 1500 μL of n-octanol pre-saturated with PBS. To prevent material loss due to volatilisation, the two-phase system nearly filled the entire volume of the test vessels. All n-octanol–buffer mixtures were first vortexed for 1 min and then shaken for 1 h (150 oscillations per min) at room temperature (25.0 ± 0.1 °C) to reach equilibrium and phase distribution. Afterward, the samples were centrifuged using a Z 326 K tabletop centrifuge (HERMLE Labortechnik, Wehingen, Germany) for 30 min at 4000× g and 25 °C to ensure that possible emulsions were removed.
After equilibration and phase separation, the aqueous phase of all samples was analysed on an Agilent HPLC 1100 (Agilent Technologies, Waldbronn, Germany) with diode array detection. Analysis was conducted with a Zorbax SB C18 column (length 150 mm, i.d. 4.6 mm, particle size 5 μm) by Agilent Technologies. 10 min chromatographic runs were performed at 25.0 ± 0.1 °C in isocratic mode using a methanol/water mixture (60/40, v/v) with addition of 0.1% of formic acid as mobile phase modifier at a flow rate of 1.0 mL/min. The mobile phase was filtered through a membrane filter, no. 66, diameter 47 mm, pore size 0.45 µm (Supelco, Bellefonte, PA, USA). The vials were placed in the rack on the autosampler at 25 °C. The injection volume was 10 µL, with a needle offset of 0.5 mm. To avoid any carryover of the analyte-containing n-octanol phase, the outside of the syringe was subsequently washed in methanol before injection. The absorbance of the analytes during a chromatographic run was collected in the spectral range 200–400 nm, and the detection wavelength for each analyte was the one providing the maximum peak height.

[6] = IAM P.C.DD2 column, PBS pH 7.4/methanol, extrapolated to zero organic modifier

SMILES | RM0 (TLC hydrophobicity index, intercept of linear equation) [1] | Δ RM0 (increase compared to 11-keto-β-boswellic acid) ([1]; compared to 11-keto-β-boswellic acid) [units] | HSA Binding ± RSD (%) (n = 3) [2] | AGP Binding ± RSD (%) (n = 3) [3] | logk0 IAM (HPLC lipophilicity index, intercept of linear equation) ([4]; pH 7.4) | logk0 IAM (HPLC lipophilicity index, intercept of linear equation) [4, 6] | logD at 1 h [5] | spot migration in C18-TLC [1]
CC(=O)O[C@@H]1CC[C@@]2(C)[C@@H](CC[C@]3(C)[C@@H]2C(=O)C=C2[C@@H]4[C@@H](C)[C@H](C)CC[C@]4(C)CC[C@]23C)[C@@]1(C)C(=O)O [3-Acetyl-11-keto-β-boswellic Acid, 3-acetyl-11-keto-β-boswellic acid] | y = −0.0722 x + 6.9059 | 1.53 | 99.83 ± 0.47 | 83.10 ± 0.37 | y = −0.0703 x + 5.1157 |  |  | 
COc1cc(/C=C/C(=O)CC(=O)/C=C/c2ccc(O)c(OC)c2)ccc1O [Curcumin, curcumin] |  |  | 97.52 ± 0.20 | 83.07 ± 1.10 |  |  | 1.94 | 
C[C@H]1[C@H](C)CC[C@]2(C)CC[C@]3(C)C(=CC[C@@H]4[C@@]5(C)CC[C@@H](O)[C@](C)(C(=O)O)[C@@H]5CC[C@]43C)[C@H]12 [β-Boswellic Acid, β-boswellic acid] |  |  | 99.79 ± 0.30 | 89.15 ± 2.04 | y = −0.0816 x + 6.5157 |  |  | no spot migration was observed

Continued, values first:

RM0 (TLC hydrophobicity index, intercept of linear equation) [1] | Δ RM0 (increase compared to 11-keto-β-boswellic acid) ([1]; compared to 11-keto-β-boswellic acid) [units] | HSA Binding ± RSD (%) (n = 3) [2] | AGP Binding ± RSD (%) (n = 3) [3] | logk0 IAM (HPLC lipophilicity index, intercept of linear equation) ([4]; pH 7.4) | logk0 IAM (HPLC lipophilicity index, intercept of linear equation) [4, 6] | logD at 1 h [5] | spot migration in C18-TLC [1] | SMILES
y = −0.0564 x + 5.3756 |  | 98.09 ± 0.02 | 79.01 ± 0.20 |  | y = −0.0570 x + 4.9194 |  |  | CC1CCC2(C)CCC3(C)C(=CC(=O)C4C5(C)CCC(O)C(C)(C(=O)O)C5CCC43C)C2C1C (stereo not drawn) [11-Keto-β-boswellic Acid, 11-keto-β-boswellic acid]
 |  | 98.94 ± 0.35 | 89.22 ± 0.30 |  | y = −0.0788 x + 6.3109 |  | no spot migration was observed | CC1(C)CCC2(C)CCC3(C)C(=CCC4C5(C)CCC(O)C(C)(C(=O)O)C5CCC43C)C2C1 (stereo not drawn) [α-Boswellic Acid, α-boswellic acid]
